In US20210161894A1, “Compositions and Methods for Modulating Liver Endothelial Cell Fenestrations” (priority 2017, published 2021):
Entries after “also recorded” stand apart in the source; their conditions may differ.

Experiments:
[1] = system: isolated LSECs (liver sinusoidal endothelial cells); experiment: SEM of fenestrations in isolated LSECs from young and old mice after 30 min drug treatment (second Example 7); assay type: cell-based; details: for Diameter / Frequency / Porosity: 30 min
Procedure: 3-4 and 18-24 month old male C57/B16 mice were obtained from the Animal Resource Centre in Perth, Western Australia. Animals were housed at the ANZAC Research Institute animal house on a 12 hour light/dark cycle and provided with ad libitum access to food and water. Mice were not fasted prior to euthanasia by a single intraperitoneal injection with 100 mg/kg ketamine and 10 mg/kg xylazine in saline. The study was approved by the Animal Welfare Committee of the Sydney Local Health District and was performed in accordance with the Australian Code of Practice for the care and use of animals for scientific research (AWC 2016/009). All information provided accords with the ARRIVE guidelines.
As described previously (Cogger et al. J e52698, 2015 https://dx.doi.org/10.3791/52698), mouse LSEC isolation was performed by perfusion of the liver with collagenase. Non-parenchymal cells were removed by a two-step Percoll gradient and Kupffer cells were removed by selective adherence to plastic. LSECs (seeded at 0.5×10^6 cells/cm2) were cultured (37° C., 5% CO2) in serum free RPMI-1640 for 3.5 hours before use.
Cells were treated with various agents for 30 minutes to determine effects on fenestrations. All agents were dissolved in serum-free RPMI media. All experiments were performed in triplicate for both young and old mice. Actin was disrupted with 0.5 μg/ml cytochalasin D and lipid rafts were disrupted with 3.6 and 1.8 μg/ml 7-keocholesterol; dosages were selected. […] The serotonergic/phospholipase C pathway was promoted with DOI (0.1 μg/ml) and endothelin receptors were inhibited by bosentan (550, 55 and 5.5 ng/ml) Death receptor 4 was promoted with TRAIL (100, 10. 1, 0.1 and 0.01 ng/ml) and NAD+ was promoted with NMN (5000, 50, 10, 1 and 0.1 μg/ml).
SEM was performed as previous described (Corbin et al J Biol Chem 274: 13729-13732, 1999.). LSECs were fixed in 2.5% glutaraldehyde in 0.1M sodium cacodylate buffer, osmicated, dehydrated in graded ethanol and hexamethyl disilazane, mounted on stubs, sputter coated with platinum and examined using a JEOL 6380 Scanning Electron Microscope (JEOL Ltd, Japan). Images at 10,000× magnification were collected by a blinded observer and used to measure fenestration diameter and LSEC porosity using Image J (NIH, MD, USA). […] Fenestrations less than 30 nm and gaps more than 300 nm were excluded from analysis. Porosity was defined as the percentage of the cell membrane covered with fenestrations. Frequency was defined at the number of fenestrations per […].
Individual specifications of analyses are described in figures legends. All data are presented as mean±SD. Experimental design and analysis were performed in accordance with the APS guidelines described in Curran-Everett and Benos DJ. Adv Physiol Educ 31: 295-298, 2007.

[2] = system: LSEC fenestrations; experiment: SEM of LSEC fenestrations after drug treatments (Example 2, FIGS. 1-6); assay type: cell-based, mice
Excerpt: Young and old C57B16 mice (n=3 young mice, age 3-4 and n=3 old mice, 20-24 months) were maintained under full SPF conditions and with ad libitum feeding. The study had the approval of the Sydney South West Area Health Service Animal Welfare Committee. Mice at 20-24 months are senescent. Animals were sacrificed withCO2 and livers immediately perfusion-fixed via a 23G needle inserted into the portal vein. Liver tissue was fixed with1% glutaraldehyde/4% para-formaldehyde in PBS (0.1M sucrose).
Drug treatments and dosages (shown superimposed on their corresponding image in FIGS. 1, and 2) were performed by incubating liver cells at 37° C., 5% CO2 for 30 mins using RPMI with or without dissolved drug. All images were taken by two blinded researchers using a SEM at 10,000×, scale bars of 1 μm are shown.
Each data point represents the average±SD of 8 images (as shown in FIGS. 1 and 2), 616-3312 fenestration raw data points were collected per treatment.

[3] = system: actin cytoskeleton of LSECs; experiment: dSTORM imaging of the actin cytoskeleton; assay type: cell-based; details: young mice
Procedure: dSTORM imaging was performed using an in-house microscope. LSECs were prepared for dSTORM by washing twice with PBS and fixation with 4% paraformaldehyde for 30 mins. Then LSECs were washed twice with PBS, permeabilised with Triton-X for 90 secs, blocked with 5% bovine serum albumin for 1 hour, and stained with Alexa Flour phalloidin 488 (1:40) for 20 min prior to imaging. Cells were washed using PBS with 0.1% Tween and placed in OxEA buffer (30) for dSTORM visualisation and image capture. The dSTORM used 488 and 647 nm excitation from diode-pumped lasers (Coherent Inc, CA, USA). Excitation was delivered via a 1.49NA 60× oil-immersion TIRF objective (Olympus Australia, AUS). Fluorescence was captured on two separate sCMOS cameras (Imaging Development Systems GmbH, Germany). Data was collected for up to 40,000 images at around 75 fps. 5-8 whole cell images were collected by a blinded observer for each treatment dosage and processed using rapidSTORM open source software (Wolter et al. Nat Methods 9: 1040, 2012.). Each image was examined for all sieve plates and actin structures. Densitometry measurements were performed using 5-8 dSTORM images with data analysis performed using Image J software (NIH, MD, USA).

[4] = system: Intracellular cGMP; experiment: Cyclic GMP ELISA; assay type: cell-based, mice
Procedure: Assays for MTT and cGMP were performed as instructed by the kit. Briefly, MTT assays were performed following drug treatments. Cells were washed with PBS and incubated with RPMI media containing […] MTT solution. Cells were incubated at 37° C. for 4 hrs and lysed with […] solubilisation solution, 30 mins colour development followed and measured at 570 nm using a spectrophotometer. cGMP assays were also performed after drug treatments. Cells were washed with PBS and lysed with 0.1M HCl. Following sample collection the sample was acetylated and prepared with kit reagents. Samples were incubated for 18 hrs at 4° C. before examination at 410 nm with a spectrophotometer.

[5] = system: NAD+; details: cited from earlier work
[6] = old rats, 500 mg/kg; cited from earlier work

NC(=O)c1ccc[n+]([C@@H]2O[C@H](COP(=O)([O-])O)[C@@H](O)[C@H]2O)c1 [NMN, nicotinamide mononucleotide]
gap formation [1]: Gap formation was apparent | fenestration porosity after treatment ([1]; LSECs from young mice, increase from 4.6%): 8.1% | average fenestration diameter ([1]; old mice): 132±2 nm | increase in frequency ([1]; old mice, 50 pg/ml): 2.25 fold | increase in porosity ([1]; old mice, 50 pg/ml): 2.5 fold | Diameter ([1]; old mice, 50 μg/ml): 132.12 ± 2.28 nm | Frequency ([1]; old mice, 50 μg/ml): 3.95 ± 1.35 no/area | Porosity ([1]; old mice, 50 μg/ml): 5.92 ± 1.94 % | Diameter ([1]; old mice, 5000 μg/ml): 139.05 ± 11.97 nm | Frequency ([1]; old mice, 5000 μg/ml): 3.39 ± 0.60 no/area | Porosity ([1]; old mice, 5000 μg/ml): 5.55 ± 1.75 % | effect on porosity and fenestration frequency (summary in words) ([1]; young and old LSECs): significant increases in porosity and fenestration frequency in both young and old LSECs | dose response on fenestration porosity (words) ([1]; young mice): broad range | Diameter ([1]; young mice, 50 μg/ml): 127.68 ± 8.19 nm | Frequency ([1]; young mice, 50 μg/ml): 4.53 ± 0.58 no/area | Porosity ([1]; young mice, 50 μg/ml): 6.08 ± 1.00% | Diameter ([1]; young mice, 5000 μg/ml): 130.48 ± 13.21 nm | Frequency ([1]; young mice, 5000 μg/ml): 5.53 ± 0.58 no/area | Porosity ([1]; young mice, 5000 μg/ml): 8.05 ± 2.23 % | shift in frequency distribution of fenestration diameter ([1]; young mice, NMN 5000 μg/ml, 7-ketocholesterol 3.6 μg/ml): an increase in 30-100 nm and 226-500 nm fenestrations with a reduction in 126-200 nm fenestrations | diameter of fenestrations observed on SEM images [2]: Increased diameter of fenestrations | sieve plate grouping on SEM images ([2]; old mice): greater fenestration sieve plate grouping | fenestration diameter ([2]; old mice, 50 μg/ml): 133.4±0.9 nm | fenestration frequency ([2]; old mice, 50 μg/ml): 4.4±1.6 number/μm^2 | fenestration porosity ([2]; old mice, 50 μg/ml): 6.6±2.2% | peak frequency in histogram of fenestration diameter ([2]; old mice, bin range of 101-125 nm): 24% | sieve plates and fenestration density on SEM images ([2]; young and old mice): promoted increased fenestration density and maintained sieve plate fenestration clustering | fenestration frequency ([2]; young mice, 5 mg/ml): 5.9±0.1 number/μm^2 | fenestration porosity ([2]; young mice, 5 mg/ml): 9.1±2.0% | actin changes with drug treatments (dSTORM) [3]: loss of smooth fibres encircling the cytoplasm; also recorded: disordered, dense actin staining in the plasma membrane and clustering of actin within the cytoplasm; also recorded: Individual fenestrations; also recorded: Disordered actin structure; also recorded: Actin clusters; also recorded: Gap formations | change of intracellular cGMP [4]: no changes | insulin action and secretion ([5]; diet and age induced type 2 diabetic mice models, similar dosages continuously for 7 days): improve insulin action and secretion | NAD+ ([5]; female mice, 15 mins after single intraperitoneal injection of 500 mg/kg): Elevated NAD+ | glucose tolerance [6]: improved glucose tolerance | toxicity [6]: non-toxic
